Like-named read-outs stand apart in the source and are kept apart here.
Experiments:
[1] = U.S. Pat. No. 5,453,417 & PCT/CA92/00082; cited from earlier work
[2] = phase 3 clinical trials; cited from earlier work
Sprague-Dawley rats = assay: Pulmonary (intratracheal) administration to Sprague-Dawley rats, whole blood glucose; type: in vivo
Description: FIG. 6. Glucose response of Sprague-Dawley rats to […] of phosphorylated insulin hexamer. Rats were injected at Oh and glucose levels measured for 12 h. As shown, glucose levels dropped by 2 h post-dosing and remained suppressed out to 11 h post-dose, after which they returned to baseline or pre-dose levels.
Via the pulmonary route, six Sprague-Dawley rats (BW 250-360 g.) were administered 4 mg of phosphorylated insulin oligomer (in the form of hexamer). The animals were dosed by intratracheal administration using a PennCentury intratracheal Aerosolizer (Microsprayer). The dose volume was 100 μL/animal. The dose concentration for the study was prepared by dilution of 30 mg/mL phosphorylated insulin hexamer in isotonic phosphate buffered normal saline, pH 7.4.
An Antisedan cocktail consisting of atipamezole hydrochloride (1 mg/mL, 1 mg/kg) and saline was administered by subcutaneous injection at a dose volume of 1 mL/kg, following completion of the dosing process. A series of 13 blood samples (approximately 0.1 mL/sample) were collected from each animal at 1, 2, 3, 4, 5, 6, 7, 8, 9, 10, 11 and 12 hours post-dose. For this purpose, each rat (unanesthetized) was bled by jugular/tail vein venipuncture (or other site as deemed necessary) and the sample used for measuring whole blood glucose levels using the Accu Soft Advantage™ (glucometer) method. […]

[3] = test system: pancreatectomized diabetic beagle dogs; assay: Intravenous injection into pancreatectomized diabetic dogs, blood glucose
diabetic beagle dogs = assay: Subcutaneous injection into diabetic dogs, glucose suppression; type: in vivo; conditions: compared with unmodified insulin
Description: FIG. 4. Subcutaneous injection of human insulin and P-insulin oligomers into diabetic beagle dogs.
The formulation of example 3 containing P-insulin oligomers of sequence ID NO.2 and with 3:1 M:M protamine/insulin or unmodified insulin were injected subcutaneously into diabetic dogs.

[4] = test system: pancreatectomized diabetic beagle dogs; conditions: dog, in vivo, iv
L6 rat myocytes = assay: 2-deoxyglucose uptake in L6 rat myocyte cell cultures; type: cell-based; conditions: 60 min incubation
Description: FIG. 5. Dose response curve of human & porcine & P-insulin oligomers in L6 rat myocytes. Cells were incubated for 60 min. in the various concentrations of each insulin in separate experiments. 2-deoxyglucose uptake was then measured.
P-insulin oligomers of sequence ID NO. 1 were tested in L6 rat myocyte cell cultures for their ability to cause glucose uptake.

[5] = IV injection, pancreatectomized diabetic dogs

monomeric phosphorylated insulin: monomeric phosphorylated insulin of the Lougheed patents U.S. Pat. No. 5,453,417 & PCT/CA92/00082
flattening of insulin's dose response [1]: 3-4 fold

Lantus
fasting blood glucose (FBG) achieved [2]: 145 mg %

phosphorylated insulin hexamer: phosphorylated insulin oligomer in the form of hexamer, in isotonic phosphate buffered normal saline, pH 7.4
time at which glucose returned to pre-dose levels (Sprague-Dawley rats; 4 mg): ≤ 12 h | time for which blood glucose remained below baseline post-dosing (Sprague-Dawley rats; 4 mg (FIG. 6 legend says 40 mg)): 11 h

human insulin
serum half-life / duration of action (in words) ([3]; IV injection, pancreatectomized diabetic beagle dogs): short serum half-life | course of blood glucose after injection [3, 5]: rapid decline in blood glucose | hypoglycemia [3, 5]: pronounced hypoglycemia | duration of action ([3]; given IV, pancreatectomized diabetic dogs): 20 min

P-insulin oligomers: phosphorylated insulin oligomers comprising sequence ID NOs. 1 and 2; FIG. 3 and 5 use ID NO. 1, FIG. 4 uses ID NO. 2
glucose suppression / duration of action (diabetic beagle dogs): extended duration of action | course of blood glucose after injection [3, 5]: maintenance of normal glucose without hyperglycemia at all doses | dose at which hypoglycemia was observed [4]: 8 times the basal or "glucose ma | serum half-life / duration of action (in words) [4]: extended duration of action (long serum half-life) | dose response of 2-deoxyglucose uptake (L6 rat myocytes; entire dose range): flattened dose response at all concentrations investigated | maximal stimulation of deoxy-glucose uptake (L6 rat myocytes; relative to human (and porcine) insulin): markedly lower than that for porcine or human insulin

Detemir
fasting blood glucose (FBG) achieved [2]: 145 mg %

From patent US20090099064A1, “Derivatized insulin oligomers” (Diabecore Medical Inc.,, priority 2006, published 2009)
